Ten molecules from US20170008921A1, “C-3 NOVEL TRITERPENONE WITH C-28 REVERSE AMIDE DERIVATIVES AS HIV INHIBITORS” (HETERO RESEARCH FOUNDATION, priority 2015, published 2017) can be followed below.

Series [1] in a line: Cyto-toxicity (MTT assay). Format: cell-based. Here is the method: On day 1 calculate the number of cells required for the assay and seed 3×10^4 cells in 200 μl per well. Weigh the compound and dissolve it in DMSO to get 10 mM stock which is further diluted to 3 mM and 1 mM. […] Add DMSO to controls in a way to obtain final concentration of solvent that is not greater than 1%. Incubate for 4 days in 5% CO2 incubator at 37° C. On day 4, 100 μl of medium was removed from each well without disturbing the cells. Add 10 μl of MTT reagent and incubate for 4 hours at 5% CO2 incubator at 37° C. for formation of crystals. Add 200 μl of 0.1N acidic isopropanol to dissolve the crystals and read the plate at 590 nm. The values are mentioned in below Table-3 and Table-3A.

Series [2] is described as follows: Single dose oral pharmacokinetic study. Particulars: mouse, Mice oral PK @30 mg/kg, plasma, vehicle 10% Solutol+20% PEG; for AUC(0-t): read-out: AUC0-t; for Cmax: read-out: Cmax. Format: in vivo. How it is done:
The test item was administered through oral route to animals (rat/mice) at 30 mg/kg dose in a suitable vehicle (10% Solutol+20% PEG) at 10 ml/kg dose volume. Blood samples (˜50 μL at each time point) were collected from retro-orbital plexus using K3 EDTA as anticoagulant in eppendorf tubes at defined time intervals 30 minutes, 1 hour, 2 hour, 4 hour, 8 hour, 24 hour & 48 hour under light ether anaesthesia. The samples were centrifuged at 3500×g to separate plasma and stored at −80° C. until analysis. Plasma 25 μl for Mice were processed as per described in sample preparation.
Standard solutions of the test compound 1 mg/mL solutions were prepared in DMSO and further dilutions were made in methanol. […] To the test compound plasma extraction was carried out using Acetonitrile precipitation. After reconstitution with solvent (50% Acetonitrile in Buffer) samples were analyzed by LCMSMS to get the concentrations to calculate PK Parameters.

One may read the viability as the share of living cells, or the viability signal relative to a control. Read a low viability as more harm to the cells. The Cmax is the highest concentration seen after dosing. As to `Cc1noc(C)c1C(=O)NC(C)(C)C(=O)N[C@@]12CC[C@]3(C)[C@H](CC[C@@H]4[C@@]5(C)CC[C@H](OC(=O)[C@H]6C[C@@H](C(=O)O)C6(C)C)C(C)(C)[C@@H]5CC[C@]43C)C1=C(C(C)C)C(=O)C2` [Example 19, (1R,3S)-3-((((3aR,5aR,5bR,7aR,9S,11aR,11bR,13aS)-3a-(2-(3,5-dimethylisoxazole-4-carboxamido)-2-methylpropanamido)-1-isopropyl-5a,5b,8,8,11a-pentamethyl-2-oxo-3,3a,4,5,5a,5b,6,7,7a,8,9,10,11,11a,11b,12,13,13a-octadecahydro-2H-cyclopenta[a]chrysen-9-yl)oxy)carbonyl)-2,2-dimethylcyclobutane-1-carboxylic acid], in series [1], the viability at 4 days, 0.001 µM was determined as 79%; the viability at 4 days, 0.003 µM stood at 65%; the viability at 4 days, 0.01 µM was found to be 40%. For the same molecule, in series [2], the AUC(0-t) amounted to 93 µg·h/mL and the Cmax came out at 13900 ng/mL.

In series [1], `CC(C)C1=C2[C@H]3CC[C@@H]4[C@@]5(C)CC[C@H](OC(=O)[C@H]6C[C@@H](C(=O)O)C6(C)C)C(C)(C)[C@@H]5CC[C@@]4(C)[C@]3(C)CC[C@@]2(NC(=O)C(C)(C)NC(=O)c2cnccn2)CC1=O` [Example 5, (1R,3S)-3-((((3aR,5aR,5bR,7aR,9S,11aR,11bR,13aS)-1-isopropyl-5a,5b,8,8,11a-pentamethyl-3a-(2-methyl-2-(pyrazine-2-carboxamido)propanamido)-2-oxo-3,3a,4,5,5a,5b,6,7,7a,8,9,10,11,11a,11b,12,13,13a-octadecahydro-2H-cyclopenta[a]chrysen-9-yl)oxy)carbonyl)-2,2-dimethylcyclobutane-1-carboxylic acid] came in with a viability at 4 days, 0.01 µM of 74%; a viability at 4 days, 0.1 µM of 35%; a viability at 4 days, 1 µM of 4%. In series [2], the AUC(0-t) came to 289 µg·h/mL and the Cmax came out at 26000 ng/mL.

On to `CC(C)C1=C2[C@H]3CC[C@@H]4[C@@]5(C)CC[C@H](OC(=O)[C@H]6C[C@@H](C(=O)O)C6(C)C)C(C)(C)[C@@H]5CC[C@@]4(C)[C@]3(C)CC[C@@]2(NC(=O)C(C)(C)NC(=O)c2ccc(Cl)cn2)CC1=O` [Example 70, (1R,3S)-3-((((3aR,5aR,5bR,7aR,9S,11aR,11bR,13aS)-3a-(2-(5-chloropicolinamido)-2-methylpropanamido)-1-isopropyl-5a,5b,8,8,11a-pentamethyl-2-oxo-3,3a,4,5,5a,5b,6,7,7a,8,9,10,11,11a,11b,12,13,13a-octadecahydro-2H-cyclopenta[a]chrysen-9-yl)oxy)carbonyl)-2,2-dimethylcyclobutane-1-carboxylic acid], for which, in series [2], the AUC(0-t) is 881 µg·h/mL and the Cmax came to 36600 ng/mL.

For the molecule `CC(C)C1=C2[C@H]3CC[C@@H]4[C@@]5(C)CC[C@H](OC(=O)[C@H]6C[C@@H](C(=O)O)C6(C)C)C(C)(C)[C@@H]5CC[C@@]4(C)[C@]3(C)CC[C@@]2(NC(=O)C(C)(C)NCc2ccc(Cl)cc2)CC1=O` [Example 68, (1R,3S)-3-((((3aR,5aR,5bR,7aR,9S,11aR,11bR,13aS)-3a-(2-((4-chlorobenzyl)amino)-2-methylpropanamido)-1-isopropyl-5a,5b,8,8,11a-pentamethyl-2-oxo-3,3a,4,5,5a,5b,6,7,7a,8,9,10,11,11a,11b,12,13,13a-octadecahydro-2H-cyclopenta[a]chrysen-9-yl)oxy)carbonyl)-2,2-dimethylcyclobutane-1-carboxylic acid], in series [2], the AUC(0-t) was determined as 272 µg·h/mL and the Cmax is 20000 ng/mL.

For `CC(C)C1=C2[C@H]3CC[C@@H]4[C@@]5(C)CC[C@H](OC(=O)[C@H]6C[C@@H](C(=O)O)C6(C)C)C(C)(C)[C@@H]5CC[C@@]4(C)[C@]3(C)CC[C@@]2(NC(=O)C2(NC(=O)c3cccnc3N3CCOCC3)CCC2)CC1=O` [Example 45, (1R,3S)-3-((((3aR,5aR,5bR,7aR,9S,11aR,11bR,13aS)-1-isopropyl-5a,5b,8,8,11a-pentamethyl-3a-(1-(2-morpholinonicotinamido)cyclobutane-1-carboxamido)-2-oxo-3,3a,4,5,5a,5b,6,7,7a,8,9,10,11,11a,11b,12,13,13a-octadecahydro-2H-cyclopenta[a]chrysen-9-yl)oxy)carbonyl)-2,2-dimethylcyclobutane-1-carboxylic acid], in series [2], the AUC(0-t) stood at 214 µg·h/mL and the Cmax stood at 21200 ng/mL.

For `CC(C)C1=C2[C@H]3CC[C@@H]4[C@@]5(C)CC[C@H](OC(=O)[C@H]6C[C@@H](C(=O)O)C6(C)C)C(C)(C)[C@@H]5CC[C@@]4(C)[C@]3(C)CC[C@@]2(NC(=O)C(C)(C)NC(=O)c2cnn3cccnc23)CC1=O` [Example 54, (1R,3S)-3-((((3aR,5aR,5bR,7aR,9S,11aR,11bR,13aS)-1-isopropyl-5a,5b,8,8,11a-pentamethyl-3a-(2-methyl-2-(pyrazolo[1,5-a]pyrimidine-3-carboxamido)propanamido)-2-oxo-3,3a,4,5,5a,5b,6,7,7a,8,9,10,11,11a,11b,12,13,13a-octadecahydro-2H-cyclopenta[a]chrysen-9-yl)oxy)carbonyl)-2,2-dimethylcyclobutane-1-carboxylic acid], in series [2], the AUC(0-t) was determined as 402 µg·h/mL and the Cmax is 29200 ng/mL.

`CC(C)C1=C2[C@H]3CC[C@@H]4[C@@]5(C)CC[C@H](OC(=O)[C@H]6C[C@@H](C(=O)O)C6(C)C)C(C)(C)[C@@H]5CC[C@@]4(C)[C@]3(C)CC[C@@]2(NC(=O)C(C)(C)NC(=O)Cc2ccc(Cl)cc2)CC1=O` [Example 53, (1R,3S)-3-((((3aR,5aR,5bR,7aR,9S,11aR,11bR,13aS)-3a-(2-(2-(4-chlorophenyl)acetamido)-2-methylpropanamido)-1-isopropyl-5a,5b,8,8,11a-pentamethyl-2-oxo-3,3a,4,5,5a,5b,6,7,7a,8,9,10,11,11a,11b,12,13,13a-octadecahydro-2H-cyclopenta[a]chrysen-9-yl)oxy)carbonyl)-2,2-dimethylcyclobutane-1-carboxylic acid]: in series [2], the AUC(0-t) came out at 57.8 µg·h/mL and the Cmax amounted to 9750 ng/mL.

`Cc1cc(C(=O)NC(C)(C)C(=O)N[C@@]23CC[C@]4(C)[C@H](CC[C@@H]5[C@@]6(C)CC[C@H](OC(=O)[C@H]7C[C@@H](C(=O)O)C7(C)C)C(C)(C)[C@@H]6CC[C@]54C)C2=C(C(C)C)C(=O)C3)c(C)o1` [Example 33, (1R,3S)-3-((((3aR,5aR,5bR,7aR,9S,11aR,11bR,13aS)-3a-(2-(2,5-dimethylfuran-3-carboxamido)-2-methylpropanamido)-1-isopropyl-5a,5b,8,8,11a-pentamethyl-2-oxo-3,3a,4,5,5a,5b,6,7,7a,8,9,10,11,11a,11b,12,13,13a-octadecahydro-2H-cyclopenta[a]chrysen-9-yl)oxy)carbonyl)-2,2-dimethylcyclobutane-1-carboxylic acid]: in series [2], the AUC(0-t) came to 231 µg·h/mL and the Cmax came out at 11400 ng/mL.

For `CC(C)C1=C2[C@H]3CC[C@@H]4[C@@]5(C)CC[C@H](OC(=O)[C@H]6C[C@@H](C(=O)O)C6(C)C)C(C)(C)[C@@H]5CC[C@@]4(C)[C@]3(C)CC[C@@]2(NC(=O)C(C)(C)NC(=O)OC(C)(C)C)CC1=O` [Example 75, (1R,3S)-3-((((3aR,5aR,5bR,7aR,9S,11aR,11bR,13aS)-3a-(2-((tert-butoxycarbonyl)amino)-2-methylpropanamido)-1-isopropyl-5a,5b,8,8,11a-pentamethyl-2-oxo-3,3a,4,5,5a,5b,6,7,7a,8,9,10,11,11a,11b,12,13,13a-octadecahydro-2H-cyclopenta[a]chrysen-9-yl)oxy)carbonyl)-2,2-dimethylcyclobutane-1-carboxylic acid], in series [1], the viability at 4 days, 0.01 µM came to 63%; the viability at 4 days, 0.1 µM turned out to be 17%; the viability at 4 days, 1 µM is 2%.

In series [1], `Cc1cccnc1C(=O)NC(C)(C)C(=O)N[C@@]12CC[C@]3(C)[C@H](CC[C@@H]4[C@@]5(C)CC[C@H](OC(=O)[C@H]6C[C@@H](C(=O)O)C6(C)C)C(C)(C)[C@@H]5CC[C@]43C)C1=C(C(C)C)C(=O)C2` [Example 29, (1R,3S)-3-((((3aR,5aR,5bR,7aR,9S,11aR,11bR,13aS)-1-isopropyl-5a,5b,8,8,11a-pentamethyl-3a-(2-methyl-2-(3-methylpicolinamido)propanamido)-2-oxo-3,3a,4,5,5a,5b,6,7,7a,8,9,10,11,11a,11b,12,13,13a-octadecahydro-2H-cyclopenta[a]chrysen-9-yl)oxy)carbonyl)-2,2-dimethylcyclobutane-1-carboxylic acid] displayed a viability at 4 days, 0.01 µM of 29%; a viability at 4 days, 0.1 µM of 3%; a viability at 4 days, 1 µM of 2%.
